Test system: 485176-168-R4-J1-PDC spheroids with HUVEC/MSC, viability
Test: Anticancer human tumor 485176-168-R4-J1-PDC patient-derived pancreatic adenocarcinoma cell line growth inhibition [GQUAD]
Settings: for IC50: curve of first compound; for viability, T/C: stronger effect = lower value; active means viability on the fitted dose curve at most 10% of control; inactive means the rest
Excerpt: DNA G-quadruplex Stabilizer Agents in Combinations in Complex Spheroids
A high-throughput screen of multi-cell type tumor spheroids was designed to identify active combinations of DNA G-quadruplex stabilizer agents and targeted small molecules. Complex spheroids include a stromal component modeled by human endothelial cells (HUVEC) and fibroblasts modeled by human mesenchymal stem cells (MSCs). The concentration ranges selected for each drug and investigational agent were based upon clinically achievable concentrations if the clinical Cmax of the agent was known.
Compounds. The drugs and investigational agents: pidnarulex (CX-5461; NSC782164), APTO-253 (NSC789042), BRACO-19 (NSC847499), peposertib (NSC802822), ceralasertib (NSC780249), elimusertib (NSC800525), camonsertib (NSC841442), AZD-1390 (NSC803789), olaparib (NSC753686), talazoparib (NSC767125), ART-558 (NSC835418), sotorasib (NSC818433), MRTX-1133 (NSC836407), SN-38 (NSC673596), topotecan (NSC609699), etoposide (NSC141540), doxorubicin (NSC123127), gemcitabine (NSC613327), 5-fluorouracil (NSC19893), paclitaxel (NSC125973), vemurafenib (NSC761431), panobinostat (NSC761190), R-306465 (JNJ-16241199; NSC773264), adavosertib (NSC754352), TP-3654 (NSC805149), carboplatin (NSC241240), KSQ-4279 (NSC840948), and staurosporine (NSC755774) were obtained from the National Cancer Institute (NCI) Developmental Therapeutics Program Chemical Repository (34). The FDA-approved anticancer drug set is available from the NCI Developmental Therapeutics Program. […] The stock solutions were prepared in dimethyl sulfoxide (DMSO, Sigma-Aldrich, St. Louis, MO, cat. D2650) at 800-fold the tested concentration and stored at -70 degrees C prior to their use. All drugs and investigational agents were tested over a range starting from a high concentration at or near the clinical Cmax and decreasing in half-log increments. If the clinical Cmax for an agent had not been determined, the highest concentration tested was 10 microM.
2.3 Cell Culture. All cells were maintained in an incubator at 37 degrees C and 5% CO2 with 95% humidity. The PDC lines were cultured according to standard operating procedures established by the NCI PDMR. All PDCs were thawed and cultured in Matrigel-coated flasks prepared with a working solution of 1X Ham's F-12 nutrient mix, without supplementation (Invitrogen, cat. 11765054), 100 U/mL penicillin-streptomycin (Invitrogen, cat. 15140122), and 2.5% Matrigel (Corning Inc., cat. 354248) for the first three passages. The 857933-349-R-J2-PDC line was cultured in 6C/Colon 1B media, which includes advanced DMEM/F-12 (Thermo Fisher Scientific, cat. 12634028), 10 mM HEPES (Thermo Fisher Scientific, cat. 15630080), 1X GlutaMAX supplement (Thermo Fisher Scientific, cat. 35050061), 0.1 mg/mL primocin (InvivoGen, cat. ant-pm-2), 10% defined fetal bovine serum, heat inactivated (HyClone Laboratories Inc., cat. SH30070.03HI), 50% L-WRN conditioned media (ATCC, cat. CRL-3276), 1.25 mM N-Acetyl-L-cysteine (Sigma-Aldrich, cat. A9165), 10 mM nicotinamide (Sigma-Aldrich, cat. N0636), 1X B-27 supplement (Thermo Fisher Scientific, cat. 17504044), 1X N-2 supplement (Thermo Fisher Scientific, cat. 17502048), 10 microM Y-27632 dihydrochloride (Tocris Bioscience, cat. 1254), and 50 ng/mL human EGF recombinant protein (Thermo Fisher Scientific, cat. PHG0311). The 485176-168-R4-J1-PDC line was cultured in Panc media, which includes all 6C/Colon 1B media components plus 100 ng/mL human FGF-10 (Thermo Fisher Scientific, cat. 100-26), 500 nM SB-431542 (Selleckchem, cat. S1067), and gastrin (Tocris, cat. 3006).
[…]

[1] = second compound 0.0316 µM, first compound 0.0316 µM
[2] = second compound 0.0316 µM, first compound 0.1 µM
[3] = second compound 0.0316 µM, first compound 0.316 µM
[4] = second compound 0.0316 µM, first compound 1 µM
[5] = second compound 0.0316 µM, first compound 3.16 µM
[6] = second compound 0.0316 µM, first compound 10 µM
[7] = second compound 0.1 µM, first compound 0.0316 µM
[8] = second compound 0.1 µM, first compound 0.1 µM
[9] = second compound 0.1 µM, first compound 0.316 µM
[10] = second compound 0.1 µM, first compound 1 µM
[11] = second compound 0.1 µM, first compound 3.16 µM
[12] = second compound 0.1 µM, first compound 10 µM
[13] = second compound 0.316 µM, first compound 0.0316 µM
[14] = second compound 0.316 µM, first compound 0.1 µM
[15] = second compound 0.316 µM, first compound 0.316 µM
[16] = second compound 0.316 µM, first compound 1 µM
[17] = second compound 0.316 µM, first compound 3.16 µM
[18] = second compound 0.316 µM, first compound 10 µM
[19] = second compound 1 µM, first compound 0.0316 µM
[20] = second compound 1 µM, first compound 0.1 µM
[21] = second compound 1 µM, first compound 0.316 µM
[22] = second compound 1 µM, first compound 1 µM
[23] = second compound 1 µM, first compound 3.16 µM
[24] = second compound 1 µM, first compound 10 µM
[25] = second compound 3.16 µM, first compound 0.0316 µM
[26] = second compound 3.16 µM, first compound 0.1 µM
[27] = second compound 3.16 µM, first compound 0.316 µM
[28] = second compound 3.16 µM, first compound 1 µM
[29] = second compound 3.16 µM, first compound 3.16 µM
[30] = second compound 3.16 µM, first compound 10 µM
[31] = second compound 10 µM, first compound 0.0316 µM
[32] = second compound 10 µM, first compound 0.1 µM
[33] = second compound 10 µM, first compound 0.316 µM
[34] = second compound 10 µM, first compound 1 µM
[35] = second compound 10 µM, first compound 3.16 µM
[36] = second compound 10 µM, first compound 10 µM
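Further: spheroids exposed to compounds for seven days before readout.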
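Wherever viability, T/C is given: percent viability relative to DMSO vehicle control wells as 100%.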

CC(=O)O[C@H]1C(=O)[C@@]2(C)[C@H]([C@H](OC(=O)c3ccccc3)[C@]3(O)C[C@H](OC(=O)[C@H](O)[C@@H](NC(=O)c4ccccc4)c4ccccc4)C(C)=C1C3(C)C)[C@]1(OC(C)=O)CO[C@@H]1C[C@@H]2O + Cc1[nH]c2ccc(F)cc2c1-c1nc2c3cccnc3c3ncccc3c2[nH]1
inactive: viability, T/C [1] 29.9% | viability, T/C [2] 10.3% | viability, T/C [3] 10.7% | viability, T/C [4] 10.7% | viability, T/C [5] 10.6% | viability, T/C [6] 11.5% | viability, T/C [7] 29.6% | viability, T/C [8] 13.1% | viability, T/C [9] 16% | viability, T/C [10] 12.4% | viability, T/C [11] 12.3% | viability, T/C [12] 10% | viability, T/C [13] 24.9% | viability, T/C [14] 14.4% | viability, T/C [15] 14.9% | viability, T/C [16] 9.44% | viability, T/C [17] 12.5% | viability, T/C [18] 11.7% | viability, T/C [19] 28.6% | viability, T/C [20] 13.2% | viability, T/C [21] 12% | viability, T/C [22] 13.2% | viability, T/C [23] 9.22% | viability, T/C [24] 10.8% | viability, T/C [25] 24.5% | viability, T/C [26] 12.1% | viability, T/C [27] 13.4% | viability, T/C [28] 12.2% | viability, T/C [29] 11.3% | viability, T/C [30] 11.8% | viability, T/C [31] 28% | viability, T/C [32] 9.49% | viability, T/C [33] 14.4% | viability, T/C [34] 14.4% | viability, T/C [35] 11.1% | viability, T/C [36] 12.1%
< 31.6 nM: IC50 (second compound 0.0316 µM) | IC50 (second compound 0.1 µM) | IC50 (second compound 0.316 µM) | IC50 (second compound 1 µM) | IC50 (second compound 3.16 µM) | IC50 (second compound 10 µM)

COc1cc(C2c3cc4c(cc3C(OC3OC5COC(C)OC5C(O)C3O)C3COC(=O)C23)OCO4)cc(OC)c1O (centres undefined) + Cc1[nH]c2ccc(F)cc2c1-c1nc2c3cccnc3c3ncccc3c2[nH]1
inactive: viability, T/C [1] 89.3% | viability, T/C [2] 63% | viability, T/C [3] 43.9% | viability, T/C [4] 43% | viability, T/C [5] 29.5% | viability, T/C [6] 12.7% | viability, T/C [7] 92.3% | viability, T/C [8] 68.7% | viability, T/C [9] 37.5% | viability, T/C [10] 42.1% | viability, T/C [11] 24% | viability, T/C [12] 12.5% | viability, T/C [13] 86.1% | viability, T/C [14] 97.7% | viability, T/C [15] 52.9% | viability, T/C [16] 44.4% | viability, T/C [17] 29.4% | viability, T/C [18] 13% | viability, T/C [19] 89.6% | viability, T/C [20] 67.7% | viability, T/C [21] 47.4% | viability, T/C [22] 44.5% | viability, T/C [23] 24.9% | viability, T/C [24] 15.1% | viability, T/C [25] 77.3% | viability, T/C [26] 65.7% | viability, T/C [27] 43.6% | viability, T/C [28] 42.8% | viability, T/C [29] 28.7% | viability, T/C [30] 13% | viability, T/C [31] 96.2% | viability, T/C [32] 69.9% | viability, T/C [33] 44% | viability, T/C [34] 44.8% | viability, T/C [35] 24.9% | viability, T/C [36] 13.2%
317 nM: IC50 (second compound 0.0316 µM)
650 nM: IC50 (second compound 0.316 µM)
266 nM: IC50 (second compound 0.1 µM)
403 nM: IC50 (second compound 1 µM)
344 nM: IC50 (second compound 3.16 µM) | IC50 (second compound 10 µM)
